“Also recorded” adds a separate entry of the source. No end group written: not given here.
Columns and labels:
[1] = in vivo, ip
PC12 cells = test: Differentiation of cultured PC12 cells; format: cell-based; settings: 100 nM, compared to vehicle treated cells, qualitative
Experimental: The PC12 cells were cultured in RPMI containing 5% heat inactivated fetal bovine serum and 10% horse serum in the presence of 100 units/mL penicillin and 100 microgram/mL streptomycin. The cells were plated on poly-D-Lysine coated 6-well tissue culture plates at a density of 150,000 cells per well in 2 mL media. After 48 hours at 37° C. in 5% CO2 atmosphere, media exchange was performed and plates were dosed, using the peptide diluent (water) for the control samples. […] Cell images of each treatment group were captured and compared to the control cells to screen for differentiation and cell body volume increases. Cells having neurite-like process outgrowth were noted and photographed. The neurite-like outgrowth was deemed positive if its length was at least two times the width of the cell body.

human PAC1 receptors [2] = target: T1, human PAC1 receptors (Homo sapiens, UniProt P41586); test: FLIPR calcium flux, antagonist fixed concentration mode (Gaddum/Schild EC50 shift), PAC1-CHO cells; format: cell-based; settings: for shift of PACAP1-27 agonist curves: fixed concentrations of antagonist up to 1 μM
T1 construct: host or cells: CHO (clonal line PAC1-CHO)
T1 sequence (P41586 21-468): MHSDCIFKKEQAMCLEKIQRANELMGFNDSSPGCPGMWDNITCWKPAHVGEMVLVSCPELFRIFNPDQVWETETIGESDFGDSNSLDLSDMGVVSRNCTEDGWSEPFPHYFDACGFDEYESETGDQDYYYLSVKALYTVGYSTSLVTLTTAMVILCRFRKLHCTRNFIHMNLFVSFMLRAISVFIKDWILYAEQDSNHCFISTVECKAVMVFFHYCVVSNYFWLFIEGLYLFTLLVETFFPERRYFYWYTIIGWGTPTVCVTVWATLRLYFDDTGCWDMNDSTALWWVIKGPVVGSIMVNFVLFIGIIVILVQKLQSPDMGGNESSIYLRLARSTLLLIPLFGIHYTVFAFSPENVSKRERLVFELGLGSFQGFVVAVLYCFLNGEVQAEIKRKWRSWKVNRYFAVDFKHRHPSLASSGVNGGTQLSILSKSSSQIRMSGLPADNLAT
Experimental: A custom DNA clone of the human PAC1 gene with 3 hemagglutinin (HA) tags inserted 3′ to the signal peptide sequence (to avoid proteolytic loss) was obtained from Genecopoeia (Rockville, Md.). The construct was electroporated into Chinese Hamster Ovary (CHO) cells, and selected for with 500 μg/mL of G418. The resulting population was screened for high expressing clones, and one such clone selected for further analysis. […] This cell line was used for all molecular pharmacology experiments. […] All molecular pharmacology experiments were carried out using a FLIPR Tetra from Molecular Devices (Sunnyvale, Calif.), set to image calcium flux using the manufacturer's recommended settings and protocols. The day before an experiment, the PAC1-CHO cells were split into 384 well black walled, clear bottom microplates, 10,000 cells per well. The cells were recovered overnight in growth medium (as above). The next day, the growth medium was replaced with Calcium 6 dye (Molecular Devices) using the manufacturer recommended buffer with 2.5 mM probenecid. The cells were incubated for 2 hours in the culture incubator, and removed during the last 15 minutes to allow equilibration to room temperature. Compound as indicated below was added to the cells using a 384 tip block, with real time monitoring before, during, and 15 minutes after compound addition. The resulting calcium flux was recorded, and the maximum-minimum response over the entire observation time calculated and reported as the mean±SEM (4 wells per point). For antagonist mode experiments, a concentration curve (variable concentration mode) or fixed amount (fixed concentration mode) of antagonist was added to the cells, and allowed to equilibrate for 2 minutes. […] The resulting data was analyzed using a Gaddum/Schild EC50 shift model, (Schild, 1957, Gaddum, 1957) designed to analyze competitive antagonism. […] The pharmacology values are calculated separately from each experiment, then combined and reported as the mean±SEM for the entire set of experiments.

human PAC1 receptors [3] = target: T1, human PAC1 receptors; test: FLIPR calcium flux, antagonist variable concentration mode versus 5 nM PACAP1-27, PAC1-CHO cells; format: cell-based; settings: up to 1 μM
Experimental: A custom DNA clone of the human PAC1 gene with 3 hemagglutinin (HA) tags inserted 3′ to the signal peptide sequence (to avoid proteolytic loss) was obtained from Genecopoeia (Rockville, Md.). The construct was electroporated into Chinese Hamster Ovary (CHO) cells, and selected for with 500 μg/mL of G418. The resulting population was screened for high expressing clones, and one such clone selected for further analysis. […] This cell line was used for all molecular pharmacology experiments. The cells were maintained in DMEM/F12 with 10% heat-inactivated FBS, 1× penicillin/streptomycin, and 500 μg/mL G418, at 37° C. and 5% CO2.
All molecular pharmacology experiments were carried out using a FLIPR Tetra from Molecular Devices (Sunnyvale, Calif.), set to image calcium flux using the manufacturer's recommended settings and protocols. […] The resulting calcium flux was recorded, and the maximum-minimum response over the entire observation time calculated and reported as the mean±SEM (4 wells per point).
For antagonist mode experiments, a concentration curve (variable concentration mode) or fixed amount (fixed concentration mode) of antagonist was added to the cells, and allowed to equilibrate for 2 minutes. […] The resulting data was analyzed using a Gaddum/Schild EC50 shift model, (Schild, 1957, Gaddum, 1957) designed to analyze competitive antagonism. […]

[4] = system: PACAP receptors in human neuroblastoma NB-OK-1 cell membranes; settings: Robberecht et al. 1992; read-out: reported Ki values; cited from earlier work

| Compound | presence in mouse brain / crossing the blood brain barrier [1] | neurite-like process outgrowth / differentiation (PC12 cells) | Schild Slope (human PAC1 receptors [2]; fixed concentration mode) | shift of PACAP1-27 agonist curves (human PAC1 receptors [2]) | antagonist activity at PAC1 (in words) (human PAC1 receptors [3]) | Ki [4] |
| --- | --- | --- | --- | --- | --- | --- |
| CC[C@H](C)[C@H](NC(=O)CNC(=O)[C@H](CC(=O)O)NC(=O)[C@H](CO)NC(=O)[C@@H](N)Cc1c[nH]cn1)C(=O)N[C@@H](Cc1ccccc1)C(=O)N[C@H](C(=O)N[C@@H](CC(=O)O)C(=O)N[C@@H](CO)C(=O)N[C@@H](Cc1ccc(O)cc1)C(=O)N[C@@H](CO)C(=O)N[C@@H](CCCNC(=N)N)C(=O)N[C@@H](Cc1ccc(O)cc1)C(=O)N[C@@H](CCCNC(=N)N)C(=O)N[C@@H](CCCCN)C(=O)N[C@@H](CCC(N)=O)C(=O)N[C@@H](CCSC)C(=O)N[C@@H](C)C(=O)N[C@H](C(=O)N[C@@H](CCCCN)C(=O)N[C@@H](CCCCN)C(=O)N[C@@H](Cc1ccc(O)cc1)C(=O)N[C@@H](CC(C)C)C(=O)N[C@@H](C)C(=O)N[C@@H](C)C(=O)N[C@H](C(=O)N[C@@H](CO[C@@H]1O[C@H](CO)[C@@H](O)[C@H](O)[C@H]1O)C(N)=O)C(C)C)C(C)C)[C@@H](C)O [PACAP1-27-S-G] | presence in mouse brain could be detected |  |  |  |  |  |
| CC[C@H](C)[C@H](NC(=O)CNC(=O)[C@H](CC(=O)O)NC(=O)[C@H](CO)NC(=O)[C@@H](N)Cc1c[nH]cn1)C(=O)N[C@@H](Cc1ccccc1)C(=O)N[C@H](C(=O)N[C@@H](CC(=O)O)C(=O)N[C@@H](CO)C(=O)N[C@@H](Cc1ccc(O)cc1)C(=O)N[C@@H](CO)C(=O)N[C@@H](CCCNC(=N)N)C(=O)N[C@@H](Cc1ccc(O)cc1)C(=O)N[C@@H](CCCNC(=N)N)C(=O)N[C@@H](CCCCN)C(=O)N[C@@H](CCC(N)=O)C(=O)N[C@@H](CCSC)C(=O)N[C@@H](C)C(=O)N[C@H](C(=O)N[C@@H](CCCCN)C(=O)N[C@@H](CCCCN)C(=O)N[C@@H](Cc1ccc(O)cc1)C(=O)N[C@@H](CC(C)C)C(=O)N[C@@H](C)C(=O)N[C@@H](C)C(=O)N[C@H](C(=O)N[C@@H](CC(C)C)C(N)=O)C(C)C)C(C)C)[C@@H](C)O [PACAP1-27] |  | induced neurite outgrowth |  |  |  |  |
| CSCC[C@H](NC(=O)[C@H](CCC(N)=O)NC(=O)[C@H](CCCCN)NC(=O)[C@H](CCCNC(=N)N)NC(=O)[C@H](Cc1ccc(O)cc1)NC(=O)[C@H](CCCNC(=N)N)NC(=O)[C@H](CO)NC(=O)[C@H](Cc1ccc(O)cc1)NC(=O)[C@H](CO)NC(=O)[C@H](CC(=O)O)NC(=O)[C@@H](NC(=O)[C@@H](N)Cc1ccccc1)[C@@H](C)O)C(=O)N[C@@H](C)C(=O)N[C@H](C(=O)N[C@@H](CCCCN)C(=O)N[C@@H](CCCCN)C(=O)N[C@@H](Cc1ccc(O)cc1)C(=O)N[C@@H](CC(C)C)C(=O)N[C@@H](C)C(=O)N[C@@H](C)C(=O)N[C@H](C(=O)N[C@@H](CC(C)C)C(=O)NCC(=O)N[C@@H](CCCCN)C(=O)N[C@@H](CCCNC(=N)N)C(=O)N[C@@H](Cc1ccc(O)cc1)C(=O)N[C@@H](CCCCN)C(=O)N[C@@H](CCC(N)=O)C(=O)N[C@@H](CCCNC(=N)N)C(=O)N[C@H](C(=O)N[C@@H](CCCCN)C(=O)N[C@@H](CC(N)=O)C(=O)N[C@@H](CCCCN)C(N)=O)C(C)C)C(C)C)C(C)C [PACAP6-38] |  |  | 2.0±0.1 | induced a shift only at 1 μM; also recorded: shifts the curve only at the highest concentration (1 μM) | very weak antagonist activity; also recorded: shows antagonism, but it is low potency | 1.5 nM |
| FTDSY10SRYRKQMAVK20KYLAAVL (FTDSYSRYRKQMAVKKYLAAVL-NH2; ends and bridges not checked) [PACAP6-27] |  |  |  | caused no shift in the agonist curves; also recorded: no detectable shifts in the agonist curves | no antagonist activity and none | 60 nM |

Reference: patent US10858410B2, “Glycosylated peptides with pseudoproline residues and having enhanced half-lives and ability to cross the blood brain barrier” (ARIZONA BOARD OF REGENTS ON BEHALF OF THE UNIVERSITY OF …, priority 2015, dated 2020)
